What follows are compounds tested against human PDE4D catalytic domain (UniProt no. Q08499) (Homo sapiens (Human), UniProt Q08499) (assay: PDE4 assay (TR-FRET, FAM-cAMP cleavage)). Details: human PDE4D catalytic domain; molar concentration giving 50% inhibition of substrate cleavage; read-out: PDE4 IC50 range.
Chain of human PDE4D catalytic domain (Q08499 380-740 limits assumed): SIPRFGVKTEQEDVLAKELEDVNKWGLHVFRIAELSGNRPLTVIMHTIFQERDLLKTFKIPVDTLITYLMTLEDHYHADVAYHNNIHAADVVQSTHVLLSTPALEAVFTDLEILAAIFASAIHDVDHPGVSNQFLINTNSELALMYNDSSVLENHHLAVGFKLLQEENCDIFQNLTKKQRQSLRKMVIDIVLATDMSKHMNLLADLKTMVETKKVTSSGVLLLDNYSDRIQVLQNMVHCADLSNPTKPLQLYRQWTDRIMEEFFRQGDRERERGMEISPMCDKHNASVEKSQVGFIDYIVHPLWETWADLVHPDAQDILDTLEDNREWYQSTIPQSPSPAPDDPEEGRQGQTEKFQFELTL
Type: biochemical
Protocol: The human PDE4D catalytic domain (UniProt no. Q08499 [[…]]) was incubated with a mixture of non-labelled cAMP (cyclic adenosine monophosphate) and fluorescein amidite (FAM) conjugated cAMP and titrated test or reference compound. Following brief incubation the enzymatic reaction was stopped by addition of binding buffer containing nanoparticles with immobilized trivalent metal ions capable of binding 1) AMP phospho groups and 2) terbium (Tb) donor fluorophores. Subsequent excitation of the Tb donor triggers time-resolved FRET to adjacent FAM acceptor molecules resulting in light emission. In the presence of a PDE4 inhibitor, AMP generation was reduced resulting in a lower fluorescence signal. The cAMP phosphodiester is not bound by the detection system.
The results were calculated as the molar concentrations resulting in 50% inhibition of the substrate cleavage compared to controls samples, and are expressed as a range of IC50 (nM).
With CCc1nn(C[C@@H](C)COC(=O)c2cc(Cl)ccc2C(F)(F)F)c2c1C(=O)NCC1(CCOCC1)C2 [Example 239, [(2R)-3-(3-ethyl-4-oxo-spiro[6,8-dihydro-5H-pyrazolo[4,3-c]azepine-7,4′-tetrahydropyran]-1-yl)-2-methyl-propyl] 5-chloro-2-(trifluoromethyl)benzoate] the IC50 was under 100 nM. For CCc1nn(C[C@@H](C)COC(=O)c2cccc(OC)c2Cl)c2c1C(=O)NCC1(CCOCC1)C2 [Example 207, [(2R)-3-(3-ethyl-4-oxo-spiro[6,8-dihydro-5H-pyrazolo[4,3-c]azepine-7,4′-tetrahydropyran]-1-yl)-2-methyl-propyl] 2-chloro-3-methoxy-benzoate], the IC50 was under 100 nM. Compound CCc1nn(CCCOC(=O)c2cccc(C(=O)N3CCN(C)CC3)c2)c2c1C(=O)NCC1(CCOCC1)C2 [Example 158, 3-(3-ethyl-4-oxo-spiro[6,8-dihydro-5H-pyrazolo[4,3-c]azepine-7,4′-tetrahydropyran]-1-yl)propyl 3-(4-methylpiperazine-1-carbonyl)benzoate] has an IC50 of 100 to 500 nM. For CCc1nn(C[C@@H](C)COC(=O)c2ccc(S(=O)(=O)N3CCOCC3)cc2)c2c1C(=O)NCC1(CCOCC1)C2 [Example 249, [(2R)-3-(3-ethyl-4-oxo-spiro[6,8-dihydro-5H-pyrazolo[4,3-c]azepine-7,4′-tetrahydropyran]-1-yl)-2-methyl-propyl] 4-morpholinosulfonylbenzoate], the IC50 was under 100 nM. CCc1nn(C[C@@H](C)COC(=O)c2ccc(Cl)cc2C(F)(F)F)c2c1C(=O)NCC1(CCOCC1)C2 [Example 236, [(2R)-3-(3-ethyl-4-oxo-spiro[6,8-dihydro-5H-pyrazolo[4,3-c]azepine-7,4′-tetrahydropyran]-1-yl)-2-methyl-propyl] 4-chloro-2-(trifluoromethyl)benzoate] was tested, and the IC50 was under 100 nM. Compound CCc1nn(CCCOC(=O)C(CC)CC)c2c1C(=O)NCC1(CCOCC1)C2 [Example 11, 3-(3-ethyl-4-oxo-spiro[6,8-dihydro-5H-pyrazolo[4,3-c]azepine-7,4′-tetrahydropyran]-1-yl)propyl 2-ethylbutanoate] has an IC50 of under 100 nM. CCc1nn(C[C@@H](C)COC(=O)c2cccc(C(F)(F)F)c2C)c2c1C(=O)NCC1(CCOCC1)C2 [Example 217, [(2R)-3-(3-ethyl-4-oxo-spiro[6,8-dihydro-5H-pyrazolo[4,3-c]azepine-7,4′-tetrahydropyran]-1-yl)-2-methyl-propyl] 2-methyl-3-(trifluoromethyl)benzoate] showed an IC50 of under 100 nM. In the case of CCc1nn(C[C@@H](C)COC(=O)c2cccc(F)c2OC)c2c1C(=O)NCC1(CCOCC1)C2 [Example 192, [(2R)-3-(3-ethyl-4-oxo-spiro[6,8-dihydro-5H-pyrazolo[4,3-c]azepine-7,4′-tetrahydropyran]-1-yl)-2-methyl-propyl] 3-fluoro-2-methoxy-benzoate], the IC50 is reported as under 100 nM. CCc1nn(C[C@@H](C)COC(=O)c2ccc(Cl)cc2C)c2c1C(=O)NCC1(CCOCC1)C2 [Example 196, [(2R)-3-(3-ethyl-4-oxo-spiro[6,8-dihydro-5H-pyrazolo[4,3-c]azepine-7,4′-tetrahydropyran]-1-yl)-2-methyl-propyl] 4-chloro-2-methyl-benzoate] was tested, and the IC50 was under 100 nM. CCc1nn(CCCOC(=O)C2CCC(OC)CC2)c2c1C(=O)NCC1(CCOCC1)C2 (stereo not drawn) [Example 48, 3-(3-ethyl-4-oxo-spiro[6,8-dihydro-5H-pyrazolo[4,3-c]azepine-7,4′-tetrahydropyran]-1-yl)propyl 4-methoxycyclohexane-carboxylate] showed an IC50 of 100 to 500 nM. CCc1nn(C[C@@H](C)COC(=O)c2ccc(C)cc2C)c2c1C(=O)NCC1(CCOCC1)C2 [Example 170, [(2R)-3-(3-ethyl-4-oxo-spiro[6,8-dihydro-5H-pyrazolo[4,3-c]azepine-7,4′-tetrahydropyran]-1-yl)-2-methyl-propyl] 2,4-dimethylbenzoate] was tested, and the IC50 was under 100 nM. In the case of CCc1nn(C[C@@H](C)COC(=O)C2CCCC2)c2c1C(=O)NCC1(CCOCC1)C2 [Example 161, [(2R)-3-(3-ethyl-4-oxo-spiro[6,8-dihydro-5H-pyrazolo[4,3-c]azepine-7,4′-tetrahydropyran]-1-yl)-2-methyl-propyl] cyclopentanecarboxylate], the IC50 is reported as under 100 nM. Work on CCc1nn(CCCOC(=O)c2cccc(S(N)(=O)=O)c2)c2c1C(=O)NCC1(CCOCC1)C2 [Example 102, 3-(3-ethyl-4-oxo-spiro[6,8-dihydro-5H-pyrazolo[4,3-c]azepine-7,4′-tetrahydropyran]-1-yl)propyl 3-sulfamoylbenzoate] yielded an IC50 of under 100 nM. CCc1nn(CCCOC(=O)c2cc(C(F)(F)F)ccc2Cl)c2c1C(=O)NCC1(CCOCC1)C2 [Example 128, 3-(3-ethyl-4-oxo-spiro[6,8-dihydro-5H-pyrazolo[4,3-c]azepine-7,4′-tetrahydropyran]-1-yl)propyl 2-chloro-5-(trifluoromethyl)benzoate] was tested, and the IC50 was under 100 nM. In the case of CCc1nn(CCCOC(=O)C2CC(F)(F)C2)c2c1C(=O)NCC1(CCOCC1)C2 [Example 14, 3-(3-ethyl-4-oxo-spiro[6,8-dihydro-5H-pyrazolo[4,3-c]azepine-7,4’-tetrahydropyran]-1-yl)propyl 3,3-difluorocyclobutane-carboxylate], the IC50 is reported as 100 to 500 nM.

Same assay, conditions: read-out: PDE4 IC50 range
Work on CCc1nn(CC(C)(C)COC(=O)c2ccc(C(N)=O)cc2)c2c1C(=O)NCC1(CCOCC1)C2 [Example 328, [3-(3-ethyl-4-oxo-spiro[6,8-dihydro-5H-pyrazolo[4,3-c]azepine-7,4′-tetrahydropyran]-1-yl)-2,2-dimethyl-propyl] 4-carbamoylbenzoate] yielded an IC50 of under 100 nM. For CCc1nn(CC2(COC(=O)c3ccc(Cl)cc3)CC2)c2c1C(=O)NCC1(CCOCC1)C2 [Example 355, [1-[(3-ethyl-4-oxo-spiro[6,8 dihydro-5H-pyrazolo[4,3-c]azepine-7,4′-letrahydropyran]-1-yl)methyl]cyclopropyl]methyl 4-chlorobenzoate], the IC50 was under 100 nM. Work on CCc1nn(CC(C)(C)COC(=O)c2ccc(S(N)(=O)=O)cc2)c2c1C(=O)NCC1(CCOCC1)C2 [Example 309, [3-(3-ethyl-4-oxo-spiro[6,8-dihydro-5H-pyrazolo[4,3-c]azepine-7,4′-tetrahydropyran]-1-yl)-2,2-dimethyl-propyl] 4-sulfamoylbenzoate] yielded an IC50 of under 100 nM. In the case of CCc1nn(CC(C)(C)COC(=O)c2ccccc2F)c2c1C(=O)NCC1(CCOCC1)C2 [Example 286, [3-(3-ethyl-4-oxo-spiro[6,8-dihydro-5H-pyrazolo[4,3-c]azepine-7,4′-tetrahydropyran]-1-yl)-2,2-dimethyl-propyl] 2-fluorobenzoate], the IC50 is reported as under 100 nM. With CCc1nn(CC(C)(C)COC(=O)c2cc(C(F)(F)F)ccc2Cl)c2c1C(=O)NCC1(CCOCC1)C2 [Example 315, [3-(3-ethyl-4-oxo-spiro[6,8-dihydro-5H-pyrazolo[4,3-c]azepine-7,4′-tetrahydropyran]-1-yl)-2,2-dimethyl-propyl] 2-chloro-5-(trifluoromethyl)benzoate] the IC50 was under 100 nM. Compound CCc1nn(CC(C)(C)COC(=O)c2ccc(C(=O)NC)cc2)c2c1C(=O)NCC1(CCOCC1)C2 [Example 329, [3-(3-ethyl-4-oxo-spiro[6,8-dihydro-5H-pyrazolo[4,3-c]azepine-7,4′-tetrahydropyran]-1-yl)-2,2-dimethyl-propyl] 4-(methylcarbamoyl)benzoate] has an IC50 of under 100 nM.

Source: patent publication US10906915B2, “Substituted pyrazoloazepin-4-ones and their use as phosphodiesterase inhibitors” (LEO Pharma A/S, priority 2016, dated 2021)
